What all share (assay type): biochemical
The target in assay [1] is T1, human ROCK2 enzyme kinase domain (Homo sapiens, UniProt O75116).
T1 construct: GST; purchased Carna BioSciences 01-110
Description: fluorescence coupling (TR-FRET) enzymatic assay, ROCK2. The note with it: 4 nM enzyme, 50 nM Ulight-CREBTide, one hour room temperature. On the procedure:
(§1) Dose-response curves for compounds of the present invention were determined using a fluorescence coupling enzymatic assay using purified C-terminal truncated human ROCK1 catalytic domain (amino acids 1-477 of accession number NP_005397.1) fused to GST (Carna BioSciences, Catalog #01-109) and purified C-terminal truncated human ROCK2 enzyme kinase domain (amino acids 1-553 of accession number NP_004841.2) fused to GST BioSciences, Catalog #01-110). In addition, full length cGMP-dependent protein kinase 1 (PKG or PRKG1; amino acids 1-686 of accession number NP_006249.1) fused to GST (Carna BioSciences, Catalog #01-142), full length PKACα (PRKACA; amino acids 1-351 of accession number NP_002721.1) fused to GST (Carna BioSciences, Catalog #01-127), and C-terminal truncated human AKT1 catalytic domain (amino acids 104-480 of accession number NP_005154.1) fused to GST Biosciences, Catalog #01-101) were used as a control to measure any non-desired off-target kinase activity.
(§2) Briefly, compounds of the present invention were solubilized in DMSO and a series of 12, three-fold serial dilutions were made for each compound in 2.5% DMSO. The initial starting concentration for the serial dilutions of each compound was 10 μM or 100 μM. Control samples lacking compound, ROCK enzyme or ATP also were prepared and processed in parallel with compound test samples.
(§3) A 4 μL aliquot of each serial dilution of test compound diluted in H2O with 2.5% DMSO was added to a well containing 4 μL of 10 nM purified N-truncated ROCK1 (4 nM final concentration), 10 nM purified N-truncated ROCK2 enzyme (4 nM final concentration), 1.25 nM AKT1 (0.5 nM final concentration), 25 pM PKACA (10 pM final concentration) or 20 nM PKG (8 nM final concentration), in reaction buffer containing 50 mM Hepes, pH 7.5, 1 mM EGTA, 10 mM MgCl2, 2 mM DTT, and 0.01% Tween 20 (final concentration). To initiate the enzymatic reaction, 2 μL of a solution was added to each well to provide a final concentration of 50 nM Ulight-CREBTide peptide substrate (Perkin Elmer, Catalog #TRF0107) and 4 μM ATP for ROCK1 and AKT1 assays, […] for ROCK2 assays and 30 μM ATP for PKG assays, or 1 μM ATP for PKACA assays. The reaction mixtures were incubated at room temperature for one hour. After one hour, the reaction was stopped by the addition of a 10 solution of an Europium-labelled phospho-CREB (Ser133) antibody (Perkin Elmer, Catalog #TRF0200) in LANCE buffer supplemented with 20 mM EDTA. The stopped reaction mixtures were incubated at room temperature for 90 minutes. The TR-FRET 665/620 ratios were determined using a Clariostar monochromator plate reader instrument (BMG LabTech) in accordance with the manufacturer's instructions. The ICso value for each compound was determined from each dose-response curve using GraphPad Prism 7 software with a sigmodial dose response. Key: A is IC50≤100 nM; B is 100 nM<IC50<1000 nM; C is 1,000<IC50≤10,000 nM; D is IC50>10,000 nM
(Time-resolved FRET reads energy transfer from a long-lived donor to a nearby acceptor.)

The target in assay [2] is T2, human AKT1 catalytic domain (Homo sapiens, UniProt P31749).
T2 construct: GST; purchased Carna BioSciences 01-101
T2 sequence (P31749 104-480): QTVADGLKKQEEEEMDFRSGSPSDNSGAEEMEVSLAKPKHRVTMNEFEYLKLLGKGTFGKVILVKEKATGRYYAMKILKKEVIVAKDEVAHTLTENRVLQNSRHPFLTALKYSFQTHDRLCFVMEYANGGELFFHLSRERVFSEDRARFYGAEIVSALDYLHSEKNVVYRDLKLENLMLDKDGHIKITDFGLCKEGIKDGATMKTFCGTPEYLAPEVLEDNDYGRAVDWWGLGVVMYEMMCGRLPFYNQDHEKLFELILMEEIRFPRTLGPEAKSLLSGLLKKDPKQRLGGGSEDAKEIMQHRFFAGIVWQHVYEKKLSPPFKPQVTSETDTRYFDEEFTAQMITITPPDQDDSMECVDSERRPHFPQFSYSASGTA
The assay can be described thus: fluorescence coupling (TR-FRET) enzymatic assay, AKT1 off-target control. As to conditions: 0.5 nM enzyme, 4 μM ATP, 50 nM Ulight-CREBTide, one hour room temperature. The method, then:
as §1, §2, §3

Assay [3] concerns the target T3, human ROCK1 catalytic domain (Homo sapiens, UniProt Q13464).
T3 construct: GST; purchased Carna BioSciences 01-109
The assay can be described thus: fluorescence coupling (TR-FRET) enzymatic assay, ROCK1. As to conditions: 4 nM enzyme, 4 μM ATP, 50 nM Ulight-CREBTide, one hour room temperature; read-out: ROCK1 IC50. The method, then: as §2
The reaction mixtures were incubated at room temperature for one hour. After one hour, the reaction was stopped by the addition of a 10 solution of an Europium-labelled phospho-CREB (Ser133) antibody (Perkin Elmer, Catalog #TRF0200) in LANCE buffer supplemented with 20 mM EDTA. The stopped reaction mixtures were incubated at room temperature for 90 minutes. […] The ICso value for each compound was determined from each dose-response curve using GraphPad Prism 7 software with a sigmodial dose response.

In the next assay the target is T4, PKACα (PRKACA) (Homo sapiens, UniProt P17612).
T4 construct: GST; purchased Carna BioSciences 01-127
Description: fluorescence coupling (TR-FRET) enzymatic assay, PKACA off-target control. As to conditions: 10 pM enzyme, 1 μM ATP, 50 nM Ulight-CREBTide, one hour room temperature. The method, then: as §1, §2, §3

The target of assay [4] is T5, cGMP-dependent protein kinase 1 (PKG or PRKG1) (Homo sapiens, UniProt Q13976).
T5 construct: GST; purchased Carna BioSciences 01-142
T5 sequence (Q13976 1-686 isoform Q13976-2): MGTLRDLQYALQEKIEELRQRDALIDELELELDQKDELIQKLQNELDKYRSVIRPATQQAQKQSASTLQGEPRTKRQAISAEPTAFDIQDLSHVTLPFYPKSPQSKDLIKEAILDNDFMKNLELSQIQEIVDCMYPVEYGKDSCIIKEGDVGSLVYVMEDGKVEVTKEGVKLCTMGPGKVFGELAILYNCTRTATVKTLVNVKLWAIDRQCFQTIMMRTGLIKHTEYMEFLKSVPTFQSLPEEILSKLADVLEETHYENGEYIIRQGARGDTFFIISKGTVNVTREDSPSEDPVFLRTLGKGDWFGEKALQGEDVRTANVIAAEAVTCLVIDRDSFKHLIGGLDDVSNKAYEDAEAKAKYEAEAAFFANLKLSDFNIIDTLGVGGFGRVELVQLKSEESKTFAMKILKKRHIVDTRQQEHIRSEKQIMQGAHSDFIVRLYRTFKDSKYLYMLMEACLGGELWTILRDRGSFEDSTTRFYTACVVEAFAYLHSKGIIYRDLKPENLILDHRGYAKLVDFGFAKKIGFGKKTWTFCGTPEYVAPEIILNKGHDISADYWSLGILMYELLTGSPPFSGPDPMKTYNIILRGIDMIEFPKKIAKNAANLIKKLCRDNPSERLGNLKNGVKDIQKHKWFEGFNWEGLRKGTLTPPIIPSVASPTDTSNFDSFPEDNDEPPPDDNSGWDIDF
The assay can be described thus: fluorescence coupling (TR-FRET) enzymatic assay, PKG off-target control. As to conditions: 8 nM enzyme, 30 μM ATP, 50 nM Ulight-CREBTide, one hour room temperature. On the procedure:
as §1, §2, §3

From US11912719B2, “Substituted isoquinolines as rock kinase inhibitors” (Cervello Therapeutics LLC, priority 2018, dated 2024) come the findings set out here.

T1 sequence (O75116 1-553): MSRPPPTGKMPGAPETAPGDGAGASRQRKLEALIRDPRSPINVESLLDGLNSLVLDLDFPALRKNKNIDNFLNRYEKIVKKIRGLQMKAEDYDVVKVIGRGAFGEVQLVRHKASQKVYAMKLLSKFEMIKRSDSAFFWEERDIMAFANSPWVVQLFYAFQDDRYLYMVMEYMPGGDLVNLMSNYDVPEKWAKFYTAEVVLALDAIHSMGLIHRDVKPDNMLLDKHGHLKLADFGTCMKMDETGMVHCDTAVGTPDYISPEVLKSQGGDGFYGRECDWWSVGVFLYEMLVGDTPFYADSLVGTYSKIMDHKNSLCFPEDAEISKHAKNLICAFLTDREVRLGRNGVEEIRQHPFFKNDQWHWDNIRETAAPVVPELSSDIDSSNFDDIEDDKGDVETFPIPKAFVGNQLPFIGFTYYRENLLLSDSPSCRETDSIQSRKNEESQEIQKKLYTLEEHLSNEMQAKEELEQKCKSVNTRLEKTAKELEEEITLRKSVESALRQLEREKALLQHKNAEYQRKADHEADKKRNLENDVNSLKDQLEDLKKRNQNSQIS
T3 sequence (Q13464 1-477): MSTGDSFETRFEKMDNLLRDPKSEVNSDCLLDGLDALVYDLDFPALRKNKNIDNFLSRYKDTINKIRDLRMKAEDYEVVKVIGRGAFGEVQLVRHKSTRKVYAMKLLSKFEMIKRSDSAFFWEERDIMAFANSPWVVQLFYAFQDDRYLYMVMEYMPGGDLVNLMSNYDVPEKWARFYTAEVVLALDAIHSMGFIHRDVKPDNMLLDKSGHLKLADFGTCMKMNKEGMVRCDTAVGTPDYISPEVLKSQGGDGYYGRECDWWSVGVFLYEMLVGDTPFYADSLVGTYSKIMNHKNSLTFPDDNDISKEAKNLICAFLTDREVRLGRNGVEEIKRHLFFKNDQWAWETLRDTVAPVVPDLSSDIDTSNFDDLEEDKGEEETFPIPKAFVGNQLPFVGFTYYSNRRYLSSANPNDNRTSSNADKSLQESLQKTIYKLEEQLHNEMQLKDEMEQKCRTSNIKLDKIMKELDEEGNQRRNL

Broadly, the IC50 is the concentration that inhibits the measured activity by half. Consider `O=c1[nH]ccc2c(S(=O)(=O)N3CCc4c(Cl)cc(Cl)cc43)cccc12` [Example 16, 5-((4,6-Dichloroindolin-1-yl)sulfonyl)isoquinolin-1 (2H)-one], for which the half-maximal inhibitory concentration (IC50) is 1 to 10 µM in assay [1]; over 10 µM in assay [2]; 1 to 10 µM in assay [3]; over 10 µM on PKACα (PRKACA); over 10 µM in assay [4].
For `N#Cc1cc(C2CC2)c2c(c1)N(S(=O)(=O)c1cccc3c(=O)[nH]ccc13)CC2` [Example 17], the concentration for half-maximal inhibition (IC50) in assay [1] is 0.1 to 1 µM; in assay [2], over 10 µM; in assay [3], 0.1 to 1 µM; against PKACα (PRKACA), over 10 µM; in assay [4], over 10 µM.
For `Cc1cc(C#N)cc2c1CCN2S(=O)(=O)c1cccc2c(=O)[nH]ccc12` [Example 18], the half-inhibitory concentration (IC50) in assay [1] is 0.1 to 1 µM; in assay [2], over 10 µM; in assay [3], 0.1 to 1 µM; on PKACα (PRKACA), over 10 µM; in assay [4] it was over 10 µM.
For the compound `O=c1[nH]ccc2c(S(=O)(=O)N3CCc4ccc(Cl)cc43)cc(Cl)cc12` [Example 19, 7-Chloro-5-((6-chloroindolin-1-yl)sulfonyl)isoquinolin-1 (2H)-one], the half-inhibitory concentration (IC50) (in assay [1]; in assay [2]; in assay [3]; at PKACα (PRKACA); in assay [4]) was over 10 µM in each case.
Take `N#Cc1ccc2c(c1)N(S(=O)(=O)c1cc(Cl)cc3c(=O)[nH]ccc13)CC2` [Example 20, 1-((7-Chloro-1-oxo-1,2-dihydroisoquinolin-5-yl)sulfonyl)indoline-6-carbonitrile]: the 50% inhibitory concentration (IC50) (in assay [1]; in assay [2]; in assay [3]; at PKACα (PRKACA); in assay [4]) was over 10 µM throughout.
With `O=S(=O)(c1cccc2c(O)ncc(F)c12)N1CCc2ccc(Cl)cc21` [Example 21, 5-((6-Chloroindolin-1-yl)sulfonyl)-4-fluoroisoquinolin-1-ol], the half-maximal inhibitory concentration (IC50) (in assay [1]; in assay [2]; in assay [3]; against PKACα (PRKACA); in assay [4]) was over 10 µM each time.
As for `Cc1cnc(O)c2cccc(S(=O)(=O)N3CCc4ccc(C#N)cc43)c12` [Example 22, 1-((1-Hydroxy-4-methylisoquinolin-5-yl)sulfonyl)indoline-6-carbonitrile], the half-maximal inhibitory concentration (IC50) in assay [1] is under 0.1 µM; in assay [2], over 10 µM; in assay [3] it was under 0.1 µM; against PKACα (PRKACA), 1 to 10 µM; in assay [4] it was over 10 µM.
For `Cc1cc(C#N)cc2c1CCN2S(=O)(=O)c1cccc2c(O)ncc(C)c12` [Example 23, 1-((1-Hydroxy-4-methylisoquinolin-5-yl)sulfonyl)-4-methylindoline-6-carbonitrile], the IC50 in assay [1] was 0.1 to 1 µM; in assay [2] it was over 10 µM; in assay [3], 0.1 to 1 µM; against PKACα (PRKACA), over 10 µM; in assay [4] it was over 10 µM.
In the case of `Cc1cnc(O)c2cccc(S(=O)(=O)N3CCc4ccc(Cl)cc43)c12` [Example 24, 5-((6-Chloroindolin-1-yl)sulfonyl)-4-methylisoquinolin-1-ol], the IC50 is 1 to 10 µM in assay [1]; over 10 µM in assay [2]; 1 to 10 µM in assay [3]; over 10 µM against PKACα (PRKACA); over 10 µM in assay [4].
In the case of `O=c1[nH]ncc2c(S(=O)(=O)N3CCc4ccc(Cl)cc43)cccc12` [Example 25, 5-((6-Chloroindolin-1-yl)sulfonyl)phthalazin-1 (2H)-one], the IC50 in assay [1] was 1 to 10 µM; in assay [2], over 10 µM; in assay [3], 1 to 10 µM; against PKACα (PRKACA), over 10 µM; in assay [4] it was over 10 µM.
Regarding `N#Cc1ccc2c(c1)N(S(=O)(=O)c1cccc3c(=O)[nH]ncc13)CC2` [Example 26, 1-((1-Oxo-1,2-dihydrophthalazin-5-yl)sulfonyl)indoline-6-carbonitrile], the IC50 in assay [1] is 0.1 to 1 µM; in assay [2], over 10 µM; in assay [3], 0.1 to 1 µM; at PKACα (PRKACA), over 10 µM; in assay [4] it was over 10 µM.
As for `N#Cc1ccc2c(c1)N(S(=O)(=O)c1cccc3c(=O)[nH]cc(Cl)c13)CC2` [Example 27, 1-((4-chloro-1-oxo-1,2-dihydroisoquinolin-5-yl)sulfonyl)indoline-6-carbonitrile], the IC50 in assay [1] was under 0.1 µM; in assay [2] it was 1 to 10 µM; in assay [3], under 0.1 µM; against PKACα (PRKACA) it was 1 to 10 µM; in assay [4] it was over 10 µM.
Take `N#Cc1cc2c(cn1)CCN2S(=O)(=O)c1cccc2c(=O)[nH]ccc12` [Example 28, 1-((1-oxo-1,2-dihydroisoquinolin-5-yl)sulfonyl)-2,3-dihydro-1H-pyrrolo[3,2-c]pyridine-6-carbonitrile]: the IC50 in assay [1] is 0.1 to 1 µM; in assay [2], over 10 µM; in assay [3], 0.1 to 1 µM; at PKACα (PRKACA) it was over 10 µM; in assay [4], over 10 µM.
For `COc1cc(C#N)cc2c1CCN2S(=O)(=O)c1cccc2c(=O)[nH]ccc12` [Example 29, 4-methoxy-1-((1-oxo-1,2-dihydroisoquinolin-5-yl)sulfonyl)indoline-6-carbonitrile], the half-inhibitory concentration (IC50) was under 0.1 µM in assay [1]; 1 to 10 µM in assay [2]; under 0.1 µM in assay [3]; 1 to 10 µM against PKACα (PRKACA); over 10 µM in assay [4].
In the case of `CC(=O)Nc1cc(C#N)cc2c1CCN2S(=O)(=O)c1cccc2c(=O)[nH]ccc12` [Example 30, N-(6-cyano-1-((1-oxo-1,2-dihydroisoquinolin-5-yl)sulfonyl)indolin-4-yl)acetamide], the concentration for half-maximal inhibition (IC50) in assay [1] was under 0.1 µM; in assay [2], 1 to 10 µM; in assay [3], under 0.1 µM; against PKACα (PRKACA), 1 to 10 µM; in assay [4], over 10 µM.
